Structures are written as SMILES. Values joined by “and” are separate entries in the source; they are usually repeats but may differ in a detail not shown here. Equal entries are not always repeated.

These results are taken from US20080255121A1, “Combination Drug for Treating Autoimmune Disease” (DAINIPPON SUMITOMO PHARMA CO., LTD., priority 2004, published 2008).

For series [1], the target named is T1, CaMKIIα derived from rat (Rattus norvegicus, UniProt P11275).
T1 construct: purchased Santa Cruz, Inc
Nature of the series: Examination of CaMKII inhibitory activity (1), phosphorylation of Autocamtide-2. Format: biochemical. The protocol: Test substances were dissolved in DMSO and diluted to various concentrations with a buffer solution (50 mM Tris-HCl: pH 7.5, 10 mM MgCl2, 1 mM Dithiothreitol (DTT)) (all of them are available from Nacalai Tesque, Inc.) for CaMKII reaction. CaMKIIα (final concentration 0.75 μg/ml) (Santa Cruz, Inc.) derived from rat was mixed with Autocamtide-2® (40 μM) (CALBIOCHEM Company) dissolved in CaMKII reaction buffer solution in the presence of the test substance and with CaMKII activation buffer solution (1 mMCaCl2, 1 μM calmodulin) (Nacalai Tesque, Inc.) and the reaction was started by further adding ATP (50 μM) (Nacalai Tesque, Inc.). The reaction was performed at 30° C. for five minutes and then SDS-PAGE sample buffer solution was added and the reaction was terminated by boiling for five minutes. Proteins in the reaction mixture were separated by 15% SDS-PAGE and blotted onto a PVDF membrane. Phosphorus taken in by Autocamtide-2 was reacted with an anti-phosphorylated serine/threonine antibody (Santa Cruz, Inc.) and quantified by ECL system (Amersham, Inc.) and NIH Image (downloadable from http://rsb.info.nih.gov/nih-image/).

Series [2] concerns adjuvant-induced arthritis rats. Nature of the series: Adjuvant-induced arthritis, therapeutic and prophylactic model. It is filed as in vivo, rat. As to conditions: Compound (I) 2.5 to 80 mg/kg. The protocol:
The adjuvant-induced arthritis model is a representative chronic inflammation model caused in rats, and it is widely used for pharmacological evaluation of antiinflammatory drugs and antirheumatic drugs. Accordingly, effects of Compound (I) and Compound (II) were examined in both therapeutic and prophylactic model. In the therapeutic model, the difference of the volume of a hind leg before and after the dosed period was calculated to examine edema suppression effect by the drug administration and the change of edema volume was examined. In the prophylactic model, the volume of a hind paw was measured over time during the dosed period and the effect of the drug for a long term period was examined. Although the hind paw volume or the edema volume was used as the index of efficacy evaluation, the edema volume means the increment from the normal volume of the hind paw which was not sensitized with the adjuvant, and therefore, the both indices can be used as approximately the same meaning.
A liquid paraffin suspension (1 mg/200 μl) of Mycobacterium butyricum (adjuvant) was subcutaneously injected at the tarsal part of the right hind paw of SD or Lewis rats (both male, six-week old) to cause arthritis. In the therapeutic model, 0.5% methylcellulose suspension of Compound (I) or Compound (II) which was prepared so that the dose was 1 ml per 100 g body weight was orally administered once a day for consecutive five days from the 17th day after the injection of the adjuvant. An indomethacin suspension prepared in the similar way was administered as the positive control. The volume of the hind paws was measured respectively for the right and the left by water replacement method just before the administration and in five hours after the last administration and the difference in the values just before the administration and in five hours after the last administration was calculated and assumed as the change in the edema volume. In the prophylatic model, the compounds were administered once a day for consecutive 21 days after the day when the adjuvant was injected. The volume of the right and left hind paws was measured by water replacement method every other day. In the prophylactic model of Compound (II), a suspension of D-penicillamine, an antirheumatic drug, was administered in the same way as a control.

In series [3] the test system is adjuvant arthritis rats. As to conditions: reported in Patent Documents 3, 4 and Non-Patent Documents 3 to 5; cited from earlier work.
Series [4] deals with mouse type III allergy reaction. As to conditions: reported in Patent Document 4; cited from earlier work.
Series [5] deals with experimental allergic encephalomyelitis mice. Briefly: Experimental allergic encephalomyelitis, Compound (I). It is filed as in vivo. The source says: The severity of the condition was indicated as a score (disease score) according to the following criteria.
0.5: Slight paralysis of tail
2: Light paralysis of hind paw
3: Medium to intense paralysis of hind paw or light forelimb paralysis
4: Complete paralysis of hind paw or medium to intense paralysis of forelimb
5: Paralysis of four limbs or toward death period
In the prednisolone administered group as a positive control, prednisolone was suspended in 0.5% methylcellulose solution to prepare a liquid of 0.3 mg/ml for administration and 0.1 ml per 10 g mouse weight was orally administered. In a control group, only 0.5% methylcellulose solution was […] administered. The administration was started on the sensitization day and carried out once a day for consecutive 40 days.

For series [6], the system named is adjuvant-induced arthritis rats. Nature of the series: Combination effect on adjuvant-induced arthritis (Example 19). Format: in vivo, rat. As to conditions: only methotrexate 0.060 mg/kg oral once a day 17 days. The method, then: Combination effect for rat adjuvant-induced arthritis was examined in the same manner as in Example 17.
The volume of the left hind paw was measured by water replacement method just before the administration and after the last administration, and AUC (the area under the curve formed by plotting the difference of the value at the time of grouping from the value of each time point during the administration period against the time) of the increased volume of the left hind paw was determined. Joint destruction of the right hind paw (injected paw) and the left hind paw (non-injection paw) can be measured by X-ray and this can be also used as the index to evaluate the combination effect.

For series [7] the test system is unchanged. Nature of the series: Combination effect on adjuvant-induced arthritis, joint destruction score by soft X-ray (Example 20). It is filed as in vivo, rat. As to conditions: Compound (I) 40 mg/kg and/or methotrexate 0.06 mg/kg, maximum 12. The protocol:
Combination effect for adjuvant-induced arthritic rats was examined in the same manner as in Example 17.
Euthanasia was carried out for all the rats by aspiration of high concentration carbon dioxide after the last administration. Both the hind paws were cut off at the middle point of […]. Both the hind paws were fixed with 10% neutral buffered formalin liquid. […] The degree of joint destruction was recorded with a score. Observed sites were three points of the tibia, calcaneum and tarsal bone, and the possible maximum score was 12.
1: Minimum destruction of joints and bones and new formation of cartilages
2: Mild destruction of joints and bones and new formation and light ossification of cartilages
3: Moderate destruction of joints and bones and ossification
4: Severe destruction and deformation of joints and bones and intense ossification

T1 sequence (P11275 whole entry): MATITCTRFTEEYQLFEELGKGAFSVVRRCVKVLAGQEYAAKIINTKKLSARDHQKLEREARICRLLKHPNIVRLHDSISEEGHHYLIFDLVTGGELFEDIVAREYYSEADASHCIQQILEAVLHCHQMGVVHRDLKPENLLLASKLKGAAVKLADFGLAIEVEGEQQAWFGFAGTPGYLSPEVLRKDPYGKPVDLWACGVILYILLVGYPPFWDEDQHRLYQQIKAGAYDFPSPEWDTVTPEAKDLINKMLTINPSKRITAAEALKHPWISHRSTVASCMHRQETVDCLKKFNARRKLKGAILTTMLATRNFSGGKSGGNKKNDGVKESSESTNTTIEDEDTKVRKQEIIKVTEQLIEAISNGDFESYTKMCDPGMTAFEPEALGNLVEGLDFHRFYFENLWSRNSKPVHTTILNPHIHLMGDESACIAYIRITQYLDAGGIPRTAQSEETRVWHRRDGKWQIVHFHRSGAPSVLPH

In the case of `CNc1nc(C(C)c2ccc(-c3ccccc3)c(F)c2)cs1` (stereo not shown) [Compound (II), 4-[1-(2-fluorobiphenyl-4-yl)ethyl]-2-(methylamino)thiazole], the “Inhibition rate (%)” value was 45% in series [1] (Concentration 0.1 μm), 62% in series [1] (Concentration 1 μm) and 92% in series [1] (Concentration 10 μm). Moreover, in series [2] (prophylactic model, oral once a day for 21 days, Compound (II) 50 mg/kg, FIGS. 8 and 9), the “hind paw volume / edema volume” value is listed as “remarkable edema suppressing effect”. In addition, the “change of edema volume of hind paw” value in series [2] (therapeutic model, oral once a day for five days from 17th day, Compound (II) 10 to 50 mg/kg, FIGS. 6 and 7) is “remarkable edema suppressing effect”. Besides, in series [3], the “effects on adjuvant arthritis rats” value is on record as “anti-arthritis effects”. The “edema in mouse type III allergy reaction tests” value in series [4] is “inhibitory effects on edema”.

`CC(c1ccc(-c2ccccc2)c(F)c1)c1cc(/N=C(/N)N(C)C)on1.Cl` (stereo not shown) [Compound (Ib), N′-{3-[1-(2-fluorobiphenyl-4-yl)-ethyl]-isoxazol-5-yl}-N,N-dimethyl-guanidine hydrochloride]: the “Inhibition rate (%)” value is on record as 13% in series [1] (Concentration 0.1 μm), 42% in series [1] (Concentration 1 μm) and 71% in series [1] (Concentration 10 μm).

On to `CCN/C(N)=N/c1cc(C(C)c2ccc(-c3ccccc3)c(F)c2)no1.Cl` (stereo not shown) [Compound (Ic), N-ethyl-N′-{3-[1-(2-fluorobiphenyl-4-yl)-ethyl]-isoxazol-5-yl}-guanidine hydrochloride], for which the “Inhibition rate (%)” value in series [1] (Concentration 0.1 μm) is listed as 11%; in series [1] (Concentration 1 μm), 36%; in series [1] (Concentration 10 μm), 68%.

Take `C[C@]12C=CC(=O)C=C1CC[C@@H]1[C@@H]2[C@@H](O)C[C@@]2(C)[C@H]1CC[C@]2(O)C(=O)CO` [Prednisolone, prednisolone, reference compound]: the “weight gain (natural accruement of weight by growth)” value in series [5] (Compound (I) 20 to 80 mg/kg, prednisolone 3 mg/kg, oral once a day 40 days, FIG. 14) is on record as “strongly suppressed natural accruement of weight by growth”. In series [5] (Dose 3 mg/kg oral once a day 40 days), the “Death Rate” value is given as 0/10. Further, the “Onset Rate” value in series [5] (Dose 3 mg/kg oral once a day 40 days, 3 mg/kg) was 2 of 10 and 2/10.

As to `CN(Cc1cnc2nc(N)nc(N)c2n1)c1ccc(C(=O)N[C@@H](CCC(=O)O)C(=O)O)cc1` [methotrexate, reference compound], in series [6], the “increased volume and onset ratio of left hind paw” value is “onset suppressing effect and edema suppressing effect”. In addition, the “joint destruction score of the left hind paw, representative individual which showed an average score in the group” value in series [7] (control score 3) is reported as 2. Further, in series [7] (control score 10), the “joint destruction score of the right hind paw, representative individual which showed an average score in the group” value is 9.
